According to paper PMC6269799, “Synthesis and Trypanocidal Activity of Novel 2,4,5-Triaryl-N-Hydroxylimidazole Derivatives” (Molecules, 2013):
Values joined by “and” are separate entries in the source; they are usually repeats but may differ in a detail not shown here. Equal values may be shown once. Read-outs that look alike come from different tables or passages of the source.

Columns and labels:
[1] = Cytotoxic effect on murine macrophages (Alamar Blue assay); format: cell-based; details: mouse, J774 macrophage cell line, murine macrophages J774, 21 h after the treatment
Description: (§1) Cellular viability in the presence and absence of TAI derivatives (4–6) was determined using Alamar Blue assay (Invitrogen). The macrophage cell line J774 was seeded into black clear flat-bottomed 96-well plates in a density of […]. After 1 h of incubation in controlled atmosphere (5% CO2, 37 °C),cells received fresh medium with or without Tween 20 (3%), DMSO (0.5%) and the TAI compounds (1 to 100 μM) in a quadruplicate assay. After 21 h of incubation in the previous conditions, 20 μL of Alamar Blue solution was added to each well and after 3 h, fluorescence was measured using SpectraMax M5/M5^e microplate reader (Molecular Devices; λexc = 555 nm, λem = 585 nm).

[2] = system: bloodstream trypomastigote forms of T. cruzi (Y strain); test: Activity against bloodstream trypomastigote forms; format: cell-based, Trypanosoma cruzi; details: in vitro, mean ± standard deviation of at least four separate experiments, read-out: IC50 (trypanocidal activity)
Description: The trypanocide profiles of the new TAI derivatives 3–12 was evaluated in vitro using bloodstream trypomastigote forms of T. cruzi (Y strain) isolated from infected Swiss mice and are summarised in Table 1.
Stock solutions of NAH derivatives were prepared in DMSO. Bloodstream trypomastigote forms of T. cruzi (Y strain) were isolated from infected Swiss mice and re-suspended with Dulbecco’s modified Eagle medium plus 10% foetal calf serum (DMES) to a parasite concentration of 10 × 10^6 cells/mL. This suspension (100 μL) was added to the same volume of each NAH derivative, previously prepared at twice the desired concentrations in DMES. Stock solutions of the NAH derivatives were prepared in dimethylsulfoxide (DMSO), and they were assayed in the range of 0.5 to 2000 μg/mL. The final concentration of DMSO never exceeded 0.5%, thus, it had no deleterious effect on the parasites.

[3] = system: macrophage cell line J774; test: Cytotoxic effect on murine macrophages (Alamar Blue assay); format: cell-based
Description: as §1

melting point	Compound	IC50 ([2]; Trypanosoma cruzi)	further results
	Cn1c([N+](=O)[O-])cnc1-c1c(-c2ccccc2)nc(-c2ccc(F)cc2)n1O [Compound 4, 2'-(4-Fluorophenyl)-1-methyl-5-nitro-5'-phenyl-1H,3'H-2,4'-biimidazol-3'-ol]	67.8 ± 8.39 µM	viability at 21 h, 1 µM [1]: 94.2%; viability at 21 h, 10 µM [1]: 98.9%; viability at 21 h, 100 µM [1]: 97.6%
	Cn1c([N+](=O)[O-])cnc1-c1c(-c2ccccc2)nc(-c2ccc(Br)cc2)n1O [Compound 6, 2'-(4-Bromophenyl)-1-methyl-5-nitro-5'-phenyl-1H,3'H-2,4'-biimidazol-3'-ol]	23.9 ± 4.88 µM	viability at 21 h, 1 µM [1]: 97.3%; viability at 21 h, 10 µM [1]: 97.6%; viability at 21 h, 100 µM [1]: 78.7%; effect on cell viability (in words) ([3]; 100 μM, murine macrophages): weakly reduced cell viability; cytotoxic effects (in words) ([3]; host cells (murine macrophages) at concentrations near the trypanocidal IC50): did not present cytotoxic effects
	2'-(3-Hydroxy-4-methoxy-5-nitrophenyl)-1-methyl-5-nitro-5'-phenyl-1H,3'H-2,4'-biimidazol-3'-ol [Compound 12]		IC50 [2]: 242 ± 7.54 µM
	Cn1c([N+](=O)[O-])cnc1-c1c(-c2ccccc2)nc(-c2ccc(O)cc2)n1O [Compound 9, 2'-(4-Hydroxyphenyl)-1-methyl-5-nitro-5'-phenyl-1H,3'H-2,4'-biimidazol-3'-ol]	294 ± 28 µM	
249 to 250 °C	Cn1c([N+](=O)[O-])cnc1-c1c(-c2ccccc2)nc(-c2ccc(Cl)cc2)n1O [Compound 5, 2'-(4-Chlorophenyl)-1-methyl-5-nitro-5'-phenyl-1H,3'H-2,4'-biimidazol-3'-ol]	34.6 ± 2.43 µM	viability at 21 h, 1 µM [1]: 95.7%; viability at 21 h, 10 µM [1]: 97.6%; viability at 21 h, 100 µM [1]: 93.1%
217 to 218 °C	Cn1c([N+](=O)[O-])cnc1-c1c(-c2ccccc2)nc(-c2ccccc2)n1O [Compound 3, 1-Methyl-5-nitro-2',5'-diphenyl-1H,3'H-2,4'-biimidazol-3'-ol]	108 ± 5.65 µM	
	O=C(Cn1ccnc1[N+](=O)[O-])NCc1ccccc1 [Bzn, benznidazole, reference compound]	10.8 ± 0.4 µM	
218 to 219 °C	COc1ccc(-c2nc(-c3ccccc3)c(-c3ncc([N+](=O)[O-])n3C)n2O)cc1 [Compound 8, 2'-(4-Methoxyphenyl)-1-methyl-5-nitro-5'-phenyl-1H,3'H-2,4'-biimidazol-3'-ol]	192 ± 25.3 µM	
213 to 214 °C and 213 °C	COc1ccc(-c2nc(-c3ccccc3)c(-c3ncc([N+](=O)[O-])n3C)n2O)cc1O [Compound 11, 2'-(3-Hydroxy-4-methoxyphenyl)-1-methyl-5-nitro-5'-phenyl-1H,3'H-2,4'-biimidazol-3'-ol]	200 ± 2.02 µM	
	Cn1c([N+](=O)[O-])cnc1-c1c(-c2ccccc2)nc(-c2ccc(O)c(O)c2)n1O [Compound 10, 4-(3'-Hydroxy-1-methyl-5-nitro-5'-phenyl-1H,3'H-2,4'-biimidazol-2'-yl)benzene-1,2-diol]	360 ± 24.7 µM	

Compound	melting point	IC50 ([2]; Trypanosoma cruzi)	further results
Cn1c([N+](=O)[O-])cnc1-c1c(-c2ccccc2)nc(-c2ccc([N+](=O)[O-])cc2)n1O [Compound 7, 1-Methyl-5-nitro-2'-(4-nitrophenyl)-5'-phenyl-1H,3'H-2,4'-biimidazol-3'-ol]	361 to 362 °C	242 ± 37.6 µM	
